The results in this text go back to the NIST ThermoML archive (doi:10.1021/acs.jced.6b00703).

The structures appear in SMILES notation. Numbers after ± are expanded uncertainties.

For the series the following is noted: 101 kPa, Liquid, Drop weight.

With `CCC(C)=O` [butanone] + O, the interfacial tension (292.15 K) is 0.92 ± 1 mN/m.
`CCCCOC(C)=O` [butyl ethanoate] + O: the interfacial tension (283.15 K) came out at 15.3 ± 1 mN/m; the interfacial tension (289.15 K) came to 14.9 ± 1 mN/m; the interfacial tension (290.15 K) came to 14.95 ± 1 mN/m; the interfacial tension (293.15 K) was found to be 15.3 ± 1 mN/m; the interfacial tension (303.15 K) is 15.2 ± 1 mN/m; the interfacial tension (313.15 K) amounted to 15.1 ± 1 mN/m. Further, for the setting “323.15 K”, the interfacial tension was 14.3 ± 1 mN/m.
On to `OC1CCCCC1` [cyclohexanol] + O, for which the interfacial tension by setting is: (303.15 K) 4.17 ± 1 mN/m; (313.15 K) 4.15 ± 1 mN/m; (323.15 K) 3.97 ± 1 mN/m; (333.15 K) 3.95 ± 1 mN/m.
As for `O=C1CCCCC1` [cyclohexanone] + O, the interfacial tension reads like this: (283.15 K) 4.78 ± 1 mN/m; (289.15 K) 4.43 ± 1 mN/m; (293.15 K) 4.87 ± 1 mN/m; (303.15 K) 5.08 ± 1 mN/m; (313.15 K) 5.05 ± 1 mN/m; (323.15 K) 4.71 ± 1 mN/m.
With `CCOCC` [diethyl ether] + O, the interfacial tension (293.15 K) came out at 9.03 ± 1 mN/m.
Consider `CCOC(C)=O` [ethyl acetate] + O, for which the interfacial tension is given as 7.61 ± 1 mN/m (283.15 K); 7.37 ± 1 mN/m (289.15 K); 7.29 ± 1 mN/m (293.15 K); 7.19 ± 1 mN/m (303.15 K); 7.15 ± 1 mN/m (313.15 K); 6.99 ± 1 mN/m (323.15 K).
For the compound `CC1CCCCC1` [methylcyclohexane] + O, the interfacial tension (293.15 K) is recorded as 51.4 ± 1.1 mN/m.
For the compound `CCCCCCCCO` [octan-1-ol] + O, the interfacial tension (289.15 K) turned out to be 9.1 ± 1 mN/m.
Turning to `Cc1ccccc1` [toluene] + O, the interfacial tension by setting is: (283.15 K) 36.1 ± 1.1 mN/m; (290.15 K) 35.8 ± 1.1 mN/m; (293.15 K) 36.3 ± 1.1 mN/m; (303.15 K) 36 ± 1.1 mN/m; (313.15 K) 35.3 ± 1.1 mN/m; (323.15 K) 34 ± 1 mN/m.
